Measured values: patent publication US5047398A, “DDAVP antidiuretic and method therefor” (Ferring B.V., priority 1983, dated 1991)
Where two headings read alike, the source gives them in different places.

Tests used:
healthy subjects [1] = type: in vivo, human
Procedure: Ten healthy subjects of both sexes, aged 18 through 43 were treated with DDAVP and 4-Asn-DDAVP.
One to two hours after a normal breakfast, the subjects were hydrated by drinking the volume of tap water that corresponded to 2% of their body weight. Every 15 minutes, urine was collected and its volume and osmolality were measured using an Advanced Osmometer Model 3D11. In order to overhydrate themselves, the subjects substituted their loss of fluid by drinking a volume of tap water that corresponded to the amount of urine collected. After about 40 to 45 minutes, the diuresis increased to about 200 milliliters per 15 minute period. At that time, DDAVP or 4-Asn-DDAVP in amounts of from 20 to 200 micrograms was administered perorally in 50 milliliters of distilled water. The DDAVP and 4-Asn-DDAVP were supplied by Ferring AB in lyophilized powder form which could easily be dissolved in water. The water diuresis was followed continually up to 6 hours.

healthy subjects [2] = assay: Water diuresis in overhydrated subjects after injection through a duodenal tube; type: in vivo, human; conditions: 200 micrograms in 10 ml water through duodenal tube, two subjects
Procedure: Two of the subjects were supplied with a duodenal tube which was inserted through the nose. The end of the tube was placed with the help of X-rays in the distal part of the duodenum. Overhydration and urine sampling were then carried out as described above. […] After this, 200 micrograms of DDAVP dissolved in 10 milliliters of water were injected through a tube.

[3] = in vivo; cited from earlier work

Row | Molecule | therapeutic (antidiuretic) effect (healthy subjects [1]; oral, dose of 100 micrograms) | antidiuretic effect (healthy subjects [1]; oral, doses 20 to 200 micrograms, effect only with the highest dose) | side-effects (healthy subjects [1]; human, in vivo) | therapeutic (antidiuretic) effect (healthy subjects [1]; peroral, 20 microgram dosage) | dose dependence of antidiuretic response (magnitude and duration) (healthy subjects [1]; peroral, 20 to 200 micrograms in 50 ml distilled water) | duration of antidiuretic effect (healthy subjects [1]; peroral, 20 to 200 micrograms, diuresis followed up to 6 hours) | antidiuretic response with increase in osmolality and conductivity of urine (healthy subjects [2]) | antidiuretic activity [3]
1 | 1-deamino-4-asparagine-8-D-arginine-vasopressin [Example 4-Asn-DDAVP] | no therapeutic effect | only a moderate, extremely short-lived, effect |  |  |  |  |  | 
2 | NC(=O)CC[C@@H]1NC(=O)[C@H](Cc2ccccc2)NC(=O)[C@H](Cc2ccc(O)cc2)NC(=O)CCSSC[C@@H](C(=O)N2CCC[C@H]2C(=O)N[C@H](CCCN=C(N)N)C(=O)NCC(N)=O)NC(=O)[C@H](CC(N)=O)NC1=O [DDAVP, 1-deamino-8-D-arginine vasopressin] |  |  | no side-effects were experienced | therapeutic effect was obtained | dosedependent effect | at least 6 hours | immediate antidiuretic response | high and specific antidiuretic activity
